Results from patent US9926302B2, “Heteroaryl substituted heterocyclyl sulfones” (priority 2014, dated 2018).

target: T1, Human CaV2.2 channels (Homo sapiens, UniProt Q00975); assay: Fluorescence assay for CaV2.2 channels using potassium depolarization to induce channel opening (FLIPR, Fluo 4); format: cell-based; conditions: 3 μM test compound; alternative assay buffer 30 mM KCl (inactivated channel state); HEK293 cells stably expressing human CaV2.2
T1 construct: expressed in transfected cells
T1 sequence (P54289 947-1103): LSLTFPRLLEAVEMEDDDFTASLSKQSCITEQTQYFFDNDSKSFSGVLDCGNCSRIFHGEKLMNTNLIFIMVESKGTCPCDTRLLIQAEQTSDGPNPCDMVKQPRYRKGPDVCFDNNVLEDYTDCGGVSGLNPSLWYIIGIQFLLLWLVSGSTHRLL
T1 sequence (P54289 25-946): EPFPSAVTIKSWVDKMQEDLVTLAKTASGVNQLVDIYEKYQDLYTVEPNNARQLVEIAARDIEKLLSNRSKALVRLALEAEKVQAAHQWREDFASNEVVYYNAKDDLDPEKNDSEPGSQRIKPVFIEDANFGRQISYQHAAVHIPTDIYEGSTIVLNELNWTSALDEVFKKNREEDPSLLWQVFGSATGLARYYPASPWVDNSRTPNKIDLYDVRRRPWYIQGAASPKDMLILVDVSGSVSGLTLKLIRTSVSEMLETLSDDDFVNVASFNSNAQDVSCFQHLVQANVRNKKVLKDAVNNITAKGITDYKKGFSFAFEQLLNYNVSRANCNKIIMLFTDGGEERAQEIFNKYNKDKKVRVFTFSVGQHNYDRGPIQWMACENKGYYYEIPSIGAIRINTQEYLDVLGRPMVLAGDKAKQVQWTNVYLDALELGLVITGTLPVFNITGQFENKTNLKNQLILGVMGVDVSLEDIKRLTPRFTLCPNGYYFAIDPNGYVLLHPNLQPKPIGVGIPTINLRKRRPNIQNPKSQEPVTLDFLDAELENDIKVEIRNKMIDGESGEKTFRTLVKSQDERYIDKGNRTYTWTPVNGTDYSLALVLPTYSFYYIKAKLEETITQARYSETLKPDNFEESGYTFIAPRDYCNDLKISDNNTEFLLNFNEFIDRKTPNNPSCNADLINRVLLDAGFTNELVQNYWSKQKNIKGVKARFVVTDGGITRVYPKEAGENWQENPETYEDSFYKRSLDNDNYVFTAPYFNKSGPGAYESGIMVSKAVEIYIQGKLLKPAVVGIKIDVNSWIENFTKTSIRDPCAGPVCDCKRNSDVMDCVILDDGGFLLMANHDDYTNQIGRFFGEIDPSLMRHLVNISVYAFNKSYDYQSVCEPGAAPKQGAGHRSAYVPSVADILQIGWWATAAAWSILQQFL
T1 sequence (P54284 whole entry, further chain): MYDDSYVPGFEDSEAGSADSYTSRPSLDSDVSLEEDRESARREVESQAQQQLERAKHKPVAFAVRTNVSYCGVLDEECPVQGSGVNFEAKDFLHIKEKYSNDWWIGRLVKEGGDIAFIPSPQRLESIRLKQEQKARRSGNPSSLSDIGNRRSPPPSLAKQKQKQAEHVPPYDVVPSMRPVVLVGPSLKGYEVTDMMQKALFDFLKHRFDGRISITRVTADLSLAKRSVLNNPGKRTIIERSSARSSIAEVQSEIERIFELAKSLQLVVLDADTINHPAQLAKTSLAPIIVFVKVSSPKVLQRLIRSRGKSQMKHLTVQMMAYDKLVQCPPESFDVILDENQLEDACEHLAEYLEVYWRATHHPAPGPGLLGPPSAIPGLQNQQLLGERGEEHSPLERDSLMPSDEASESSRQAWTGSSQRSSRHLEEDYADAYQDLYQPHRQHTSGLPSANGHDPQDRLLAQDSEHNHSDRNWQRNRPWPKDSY
T1 sequence (Q00975 whole entry): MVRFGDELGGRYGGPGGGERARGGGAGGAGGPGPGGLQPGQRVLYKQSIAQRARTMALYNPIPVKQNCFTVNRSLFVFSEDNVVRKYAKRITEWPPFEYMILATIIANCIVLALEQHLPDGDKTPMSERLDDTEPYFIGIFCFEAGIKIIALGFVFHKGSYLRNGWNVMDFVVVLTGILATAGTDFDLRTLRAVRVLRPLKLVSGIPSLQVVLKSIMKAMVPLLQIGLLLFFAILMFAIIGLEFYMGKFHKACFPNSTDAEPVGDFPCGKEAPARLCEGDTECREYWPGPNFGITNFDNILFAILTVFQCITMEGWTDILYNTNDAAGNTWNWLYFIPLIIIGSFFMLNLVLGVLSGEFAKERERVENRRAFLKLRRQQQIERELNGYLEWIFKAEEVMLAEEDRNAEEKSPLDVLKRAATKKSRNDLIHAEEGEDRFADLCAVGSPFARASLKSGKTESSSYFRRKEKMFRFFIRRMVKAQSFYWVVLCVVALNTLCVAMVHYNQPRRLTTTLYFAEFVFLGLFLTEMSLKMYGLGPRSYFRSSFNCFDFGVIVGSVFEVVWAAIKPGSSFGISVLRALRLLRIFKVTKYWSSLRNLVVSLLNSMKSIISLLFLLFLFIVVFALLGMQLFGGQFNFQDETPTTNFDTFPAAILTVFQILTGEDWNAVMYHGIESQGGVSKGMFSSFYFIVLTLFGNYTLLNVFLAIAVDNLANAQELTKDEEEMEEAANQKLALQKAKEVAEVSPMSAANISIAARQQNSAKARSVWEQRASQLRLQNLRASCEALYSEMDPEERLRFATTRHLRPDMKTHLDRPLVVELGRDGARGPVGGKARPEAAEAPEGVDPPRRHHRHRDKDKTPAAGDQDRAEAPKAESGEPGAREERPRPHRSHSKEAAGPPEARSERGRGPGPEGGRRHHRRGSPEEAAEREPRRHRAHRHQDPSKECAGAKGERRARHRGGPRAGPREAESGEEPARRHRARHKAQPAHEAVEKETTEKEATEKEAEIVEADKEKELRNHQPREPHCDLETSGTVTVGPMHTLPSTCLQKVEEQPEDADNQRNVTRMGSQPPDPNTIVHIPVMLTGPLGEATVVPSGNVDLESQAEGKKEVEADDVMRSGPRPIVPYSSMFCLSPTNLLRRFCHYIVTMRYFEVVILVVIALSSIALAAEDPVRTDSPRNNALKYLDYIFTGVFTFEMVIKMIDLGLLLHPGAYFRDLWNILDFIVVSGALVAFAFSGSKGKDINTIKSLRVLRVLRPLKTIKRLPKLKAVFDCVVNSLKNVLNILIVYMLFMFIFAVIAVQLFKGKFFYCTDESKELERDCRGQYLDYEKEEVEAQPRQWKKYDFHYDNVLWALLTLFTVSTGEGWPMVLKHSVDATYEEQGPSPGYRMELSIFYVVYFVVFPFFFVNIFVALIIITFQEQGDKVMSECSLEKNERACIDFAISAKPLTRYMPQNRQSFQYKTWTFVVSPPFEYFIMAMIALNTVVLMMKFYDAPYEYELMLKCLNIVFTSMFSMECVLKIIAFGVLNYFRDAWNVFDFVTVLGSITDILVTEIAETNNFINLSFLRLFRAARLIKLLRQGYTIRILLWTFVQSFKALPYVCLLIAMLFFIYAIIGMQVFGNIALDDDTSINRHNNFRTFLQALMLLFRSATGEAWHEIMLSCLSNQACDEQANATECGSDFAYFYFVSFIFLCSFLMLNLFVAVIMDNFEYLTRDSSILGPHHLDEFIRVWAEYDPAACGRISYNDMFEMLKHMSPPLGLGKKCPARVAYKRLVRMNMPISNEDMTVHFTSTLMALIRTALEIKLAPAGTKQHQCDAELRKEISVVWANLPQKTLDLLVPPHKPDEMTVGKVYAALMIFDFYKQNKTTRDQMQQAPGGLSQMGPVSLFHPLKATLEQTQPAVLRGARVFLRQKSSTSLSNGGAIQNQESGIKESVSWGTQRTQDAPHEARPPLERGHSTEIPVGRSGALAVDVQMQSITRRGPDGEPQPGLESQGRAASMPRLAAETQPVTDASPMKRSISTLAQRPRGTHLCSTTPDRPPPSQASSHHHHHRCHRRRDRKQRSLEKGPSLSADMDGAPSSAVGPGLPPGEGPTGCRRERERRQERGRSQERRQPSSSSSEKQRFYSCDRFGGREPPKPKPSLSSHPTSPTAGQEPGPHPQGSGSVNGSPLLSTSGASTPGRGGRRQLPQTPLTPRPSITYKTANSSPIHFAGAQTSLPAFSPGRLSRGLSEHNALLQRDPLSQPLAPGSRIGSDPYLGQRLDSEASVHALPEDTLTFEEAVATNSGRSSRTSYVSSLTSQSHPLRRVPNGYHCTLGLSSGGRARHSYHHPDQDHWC
From the text: In the process, the Ca^2+ influx is quantified in the FLIPR assay with the aid of a Ca^2+-sensitive dye (type Fluo-4, Molecular Probes Europe BV, Leiden, the Netherlands) in a fluorescent imaging plate reader (FLIPR 3, Molecular Devices, Sunnyvale, USA), as described hereinafter.
2.1 Fluorescence Assay for CaV2.2 Channels Using Potassium Depolarization to Induce Channel Opening
Human CaV2.2 channels were stably expressed in HEK293 cells together with alpha2-delta and beta subunits of voltage gated calcium channels. In addition, an inwardly rectifying potassium channel (Kir2.3) was stably expressed in these cells to augment control of the cell membrane potential by the concentration of extracellular potassium ions. Raise of the extracellular potassium concentration leads to depolarization of the membrane potential and thus regulates the voltage dependent state of CaV2.2 channels. For preparation, cells were seeded in black poly-D-lysine coated 96-well plates (Becton Dickinson, Biocoat 4640) in 100 μL medium [500 mL DMEM/F-12 plus Glutamax (Invitrogen 31331-093) plus 5.5 mL MEM NEAA 100× (Invitrogen 11140-035) plus 50 mL FBS decomplemented (Invitrogen 10270-106) plus 200 μg/mL Geneticin (Invitrogen 10131-027) plus 50 μg/mL Hygromycin B (Invitrogen 10687-010) plus 2 μg/mL Blasticidin (anti-bl5b Invivo-Gen) plus 0.2 μg/mL Puromycin (A 11138-03)] at a cell density of 30.000 cells per well. Plates were incubated at 37° C. (5% CO2) for 20 to 23 h. On the day of experiment medium was discarded and cells were loaded with Fluo 4 by addition of 100 μL of basic assay buffer (10 mM HEPES, 1 mM KCl, 149 mM NaCl, 0.8 mM CaCl2, 1.7 mM MgCl2, 10 mM Glucose, 0.1% BSA. pH 7.4) containing 2 μM Fluo 4 (Molecular Probes; F-14201), 0.01% pluronic acid (Molecular Probes; P-6866) and 2.5 mM probenecid (Molecular Probes; P36400). Cells were incubated in the dark at 25° C. for 60 min. Then dye containing buffer was discarded and 100 μL basic (1 mM KCl) or alternative (30 mM KCl) assay buffer was added. The alternative assay buffer contained altered concentrations of KCl (30 mM) and NaCl (120 mM) and was used in order to promote the inactivated channel state. After that 25 μL of basic or alternative assay buffer with or without test compound were added and cells were incubated again in the dark at 25° C. for 15 min. Fluorescence intensity was measured on a FLIPR 3 instrument (Molecular Devices Corp., Sunnyvale, Calif.) with excitation at 480 nm and emission at 535 nm. After continuously reading fluorescence for 30 sec, 50 μL of basic assay buffer containing 210 mM KCl (NaCl omitted) were added for depolarization. Peak fluorescent signal intensity was determined and the amplitude of the peak signal, normalized to base line, was used to measure channel inhibition by test compounds.

| SMILES | Activity Category: %-Inhib (CaV2.2) @3 μM @30 mM KCl |
| --- | --- |
| CC1(S(=O)(=O)c2cccc(C(F)(F)F)c2)CCOC(c2cncc(S(C)(=O)=O)c2)C1 (stereo not shown) [SC-100, 3-Methylsulfonyl-5-[4-methyl-4-[[3-(trifluoromethyl)phenyl]sulfonyl]-tetrahydro-pyran-2-yl]-pyridine] | C (%-Inhibition >40% up to ≤75%) |
| C[S+]([O-])c1cc(C(F)(F)F)cnc1C1CC(C)(S(=O)(=O)c2cccc(C(F)(F)F)c2)CCO1 (stereo not shown) [SC-231, 3-(Methylsulfinyl)-2-[4-methyl-4-[[3-(trifluoromethyl)phenyl]sulfonyl]-tetrahydro-pyran-2-yl]-5-(trifluoromethyl)-pyridine] | B (%-Inhibition >75% up to ≤95%) |
| CCC1(S(=O)(=O)c2cccc(C(F)(F)F)c2)CCOC(c2ccc(C(F)(F)F)cn2)C1 (stereo not shown) [SC-107, 2-[4-Ethyl-4-[[3-(trifluoromethyl)phenyl]sulfonyl]-tetrahydro-pyran-2-yl]-5-(trifluoromethyl)-pyridine] | A (%-Inhibition >95%) |
| COc1ncc(C2CC(C)(S(=O)(=O)c3cccc(C(F)(F)F)c3)CCO2)cc1F (stereo not shown) [SC-256, 3-Fluoro-2-methoxy-5-[4-methyl-4-[[3-(trifluoromethyl)phenyl]sulfonyl]-tetrahydro-pyran-2-yl]-pyridine] | B (%-Inhibition >75% up to ≤95%) |
| CC1(S(=O)(=O)c2cccc(Cl)c2)CCOC(c2ncc(S(C)(=O)=O)cc2Cl)C1 (stereo not shown) [SC-439, 3-Chloro-2-[4-[(3-chlorophenyl)sulfonyl]-4-methyl-tetrahydro-pyran-2-yl]-5-methylsulfonyl-pyridine] | C (%-Inhibition >40% up to ≤75%) |
| Cc1cc(S(C)(=O)=O)cnc1C1CC(C)(S(=O)(=O)c2cc(F)cc(C(F)(F)F)c2)CCO1 (stereo not shown) [SC-444, 2-[4-[[3-Fluoro-5-(trifluoromethyl)-phenyl]sulfonyl]-4-methyl-tetrahydro-pyran-2-yl]-3-methyl-5-methylsulfonyl-pyridine] | B (%-Inhibition >75% up to ≤95%) |
| Cc1cc(S(C)(=O)=O)cnc1C1CC(C)(S(=O)(=O)c2cccc(OC(F)(F)F)c2)CCO1 (stereo not shown) [SC-449, 3-Methyl-5-methylsulfonyl-2-[4-methyl-4-[[3-(trifluoromethyloxy)-phenyl]sulfonyl]-tetrahydro-pyran-2-yl]-pyridine] | B (%-Inhibition >75% up to ≤95%) |
| CCC1(S(=O)(=O)c2cccc(C(F)(F)F)c2)CCOC(c2ccc(C(F)(F)F)cn2)C1 (stereo not shown) [SC-109, 2-[4-Ethyl-4-[[3-(trifluoromethyl)phenyl]sulfonyl]-tetrahydro-pyran-2-yl]-5-(trifluoromethyl)-pyridine] | B (%-Inhibition >75% up to ≤95%) |
| CC1(S(=O)(=O)c2cccc(OC(F)F)c2)CCOC(c2ncc(S(C)(=O)=O)cc2Cl)C1 (stereo not shown) [SC-437, 3-Chloro-2-[4-[[3-(difluoro-methoxy)-phenyl]sulfonyl]-4-methyl-tetrahydro-pyran-2-yl]-5-methylsulfonyl-pyridine] | B (%-Inhibition >75% up to ≤95%) |
| CC1(S(=O)(=O)c2cccc(C(F)(F)F)c2)CCOC(c2ccc(Cl)cn2)C1 (stereo not shown) [SC-244, 5-Chloro-2-[4-methyl-4-[[3-(trifluoromethyl)phenyl]sulfonyl]-tetrahydro-pyran-2-yl]-pyridine] | B (%-Inhibition >75% up to ≤95%) |
| CC1(S(=O)(=O)c2cccc(C(F)(F)F)c2)CCOC(COc2ccc(C(F)(F)F)nc2)C1 (stereo not shown) [SC-209, 5-[[4-Methyl-4-[[3-(trifluoromethyl)phenyl]sulfonyl]-tetrahydro-pyran-2-yl]-methoxy]-2-(trifluoromethyl)-pyridine] | A (%-Inhibition >95%) |
| CCC1(S(=O)(=O)c2cccc(C(F)(F)F)c2)CCOC(c2ccc(C)nc2C)C1 (stereo not shown) [SC-317, 3-[4-Ethyl-4-[[3-(trifluoromethyl)phenyl]sulfonyl]-tetrahydro-pyran-2-yl]-2,6-dimethyl-pyridine] | C (%-Inhibition >40% up to ≤75%) |
| CC1(S(=O)(=O)c2cccc(C(F)(F)F)c2)CCOC(c2cnc(C3CC3)cn2)C1 (stereo not shown) [SC-329, 2-Cyclopropyl-5-[4-methyl-4-[[3-(trifluoromethyl)phenyl]sulfonyl]-tetrahydro-pyran-2-yl]-pyrazine] | A (%-Inhibition >95%) |
| CC1(S(=O)(=O)c2cccc(C(F)(F)F)c2)CCOC(COc2cnc(C3CC3)cn2)C1 (single isomer, unassigned) [SC-133, 2-Cyclopropyl-5-[[4-methyl-4-[[3-(trifluoromethyl)phenyl]sulfonyl]-tetrahydro-pyran-2-yl]-methoxy]-pyrazine] | A (%-Inhibition >95%) |

same assay, conditions: HEK293, 3 μM test compound; alternative assay buffer 30 mM KCl (inactivated channel state); HEK293 cells stably expressing human CaV2.2; read-out: Activity Category: %-Inhib (CaV2.2) @3 μM @30 mM KCl

| SMILES | inhibition at 3 µM [%] |
| --- | --- |
| CN(C)c1cnc(C2CC(C)(S(=O)(=O)c3cccc(C(F)(F)F)c3)CCO2)cn1 (stereo not shown) [SC-421, Dimethyl-[5-[4-methyl-4-[[3-(trifluoromethyl)phenyl]sulfonyl]-tetrahydro-pyran-2-yl]-pyrazin-2-yl]-amine] | 75 to 95 |
| CC1(S(=O)(=O)c2cccc(C(F)(F)F)c2)CCOC(c2ncc(S(C)(=O)=O)cc2C2CC2)C1 (stereo not shown) [SC-270, 3-cyclopropyl-2-(4-methyl-4-(3-(trifluoromethyl)phenylsulfonyl)tetrahydro-2H-pyran-2-yl)-5-(methylsulfonyl)pyridine] | 75 to 95 |
| CC1(S(=O)(=O)c2cccc(C(F)(F)F)c2)CCOC(c2cncc(C(F)(F)F)c2)C1 (single isomer, unassigned) [SC-115, 3-[4-Methyl-4-[[3-(trifluoromethyl)phenyl]sulfonyl]-tetrahydro-pyran-2-yl]-5-(trifluoromethyl)-pyridine] | 75 to 95 |
| CC1(S(=O)(=O)c2cccc(OC(F)(F)F)c2)CCOC(c2ncc(S(C)(=O)=O)cc2Cl)C1 (stereo not shown) [SC-218, 3-Chloro-5-methylsulfonyl-2-[4-methyl-4-[[3-(trifluoromethyloxy)-phenyl]sulfonyl]-tetrahydro-pyran-2-yl]-pyridine] | 75 to 95 |
| CC1(S(=O)(=O)c2cccc(C(F)(F)F)c2)CCOC(c2ccc(Cl)cn2)C1 (stereo not shown) [SC-243, 5-Chloro-2-[4-methyl-4-[[3-(trifluoromethyl)phenyl]sulfonyl]-tetrahydro-pyran-2-yl]-pyridine] | > 95 |
| CC1(S(=O)(=O)c2cccc(OC(F)(F)F)c2)CCOC(c2ncc(C(F)(F)F)cc2S(C)(=O)=O)C1 (stereo not shown) [SC-220, 3-Methylsulfonyl-2-[4-methyl-4-[[3-(trifluoromethyloxy)-phenyl]sulfonyl]-tetrahydro-pyran-2-yl]-5-(trifluoromethyl)-pyridine] | > 95 |
| CC1(S(=O)(=O)c2cccc(C(F)(F)F)c2)CCOC(c2ccc(-n3cncn3)nc2)C1 (stereo not shown) [SC-402, 5-[4-Methyl-4-[[3-(trifluoromethyl)phenyl]sulfonyl]-tetrahydro-pyran-2-yl]-2-(1H-[1,2,4]triazol-1-yl)-pyridine] | 75 to 95 |
| CC1(S(=O)(=O)c2cccc(C(F)(F)F)c2)CCOC(c2cccc(C(F)(F)F)n2)C1 (racemic) [SC-351, 2-[4-Methyl-4-[[3-(trifluoromethyl)phenyl]sulfonyl]-tetrahydro-pyran-2-yl]-6-(trifluoromethyl)-pyridine] | > 95 |
| CCC1(S(=O)(=O)c2cccc(C(F)(F)F)c2)CCOC(c2nnc(C3CC3)o2)C1 (stereo not shown) [SC-206, 2-Cyclopropyl-5-[4-ethyl-4-[[3-(trifluoromethyl)phenyl]sulfonyl]-tetrahydro-pyran-2-yl]-[1,3,4]oxadiazole] | 40 to 75 |
| CC1(S(=O)(=O)c2cccc(C(F)F)c2)CCOC(c2ncc(C(F)(F)F)cc2S(C)(=O)=O)C1 (stereo not shown) [SC-212, 2-[4-[[3-(Difluoro-methyl)-phenyl]sulfonyl]-4-methyl-tetrahydro-pyran-2-yl]-3-methylsulfonyl-5-(trifluoromethyl)-pyridine] | 75 to 95 |
| COc1cc(O)c(C2CC(C)(S(=O)(=O)c3cccc(C(F)(F)F)c3)CCO2)cn1 (stereo not shown) [SC-251, 2-Methoxy-5-[4-methyl-4-[[3-(trifluoromethyl)phenyl]sulfonyl]-tetrahydro-pyran-2-yl]-pyridin-4-ol] | 40 to 75 |
